Article PMC3057119 (Bioorganic & medicinal chemistry letters, 2011)

Tested on: p53-dependent luciferase reporter in U2OS cells
Assay: p53-dependent luciferase reporter activation
Type: cell-based
Details: U2OS cells stably expressing p53-dependent luciferase reporter, 5 μM

COc1ccc(C2=N[C@@H](c3ccc(Cl)cc3)[C@@H](c3ccc(Cl)cc3)N2C(=O)N2CCNC(=O)C2)c(OC(C)C)c1 [Nutlin-3, nutlin-3]
increase in luciferase activation: 4 fold
